Targets include Adenosine receptor A2a (Homo sapiens, UniProt P29274); Vasopressin V2 receptor (Homo sapiens, UniProt P30518); Histamine H1 receptor (Homo sapiens, UniProt P35367); Melanocortin receptor 3 (Homo sapiens, UniProt P41968); Histamine H3 receptor (Homo sapiens, UniProt Q9Y5N1).
The target of assay [1] is T1, Alpha-2B adrenergic receptor (Homo sapiens, UniProt P18089).
T1 sequence (P18089 whole entry): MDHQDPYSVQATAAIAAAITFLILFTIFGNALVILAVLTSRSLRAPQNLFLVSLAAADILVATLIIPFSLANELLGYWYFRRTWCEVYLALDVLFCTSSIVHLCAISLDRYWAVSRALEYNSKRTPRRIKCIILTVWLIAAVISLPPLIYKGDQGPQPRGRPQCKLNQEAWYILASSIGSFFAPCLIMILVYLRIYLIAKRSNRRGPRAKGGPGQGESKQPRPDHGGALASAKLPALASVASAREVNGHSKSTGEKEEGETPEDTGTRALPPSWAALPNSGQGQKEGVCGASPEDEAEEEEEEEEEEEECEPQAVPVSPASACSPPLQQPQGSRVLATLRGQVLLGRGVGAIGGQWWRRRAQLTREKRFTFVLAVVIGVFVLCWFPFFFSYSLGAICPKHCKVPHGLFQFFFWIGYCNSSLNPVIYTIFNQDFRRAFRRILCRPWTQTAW

Assay [2] deals with Voltage-dependent L-type calcium channel subunit alpha-1C (Rattus norvegicus, UniProt P22002). The format is functional.
The target of assay [3] is Gamma-aminobutyric acid receptor subunit alpha-1 (Rattus norvegicus, UniProt P62813). The format is functional.
The target of assay [4] is Growth hormone secretagogue receptor type 1 (Homo sapiens, UniProt Q92847).
Assay [5] deals with T2, 5-hydroxytryptamine receptor 1A (Homo sapiens, UniProt P08908).
T2 sequence (P08908 whole entry): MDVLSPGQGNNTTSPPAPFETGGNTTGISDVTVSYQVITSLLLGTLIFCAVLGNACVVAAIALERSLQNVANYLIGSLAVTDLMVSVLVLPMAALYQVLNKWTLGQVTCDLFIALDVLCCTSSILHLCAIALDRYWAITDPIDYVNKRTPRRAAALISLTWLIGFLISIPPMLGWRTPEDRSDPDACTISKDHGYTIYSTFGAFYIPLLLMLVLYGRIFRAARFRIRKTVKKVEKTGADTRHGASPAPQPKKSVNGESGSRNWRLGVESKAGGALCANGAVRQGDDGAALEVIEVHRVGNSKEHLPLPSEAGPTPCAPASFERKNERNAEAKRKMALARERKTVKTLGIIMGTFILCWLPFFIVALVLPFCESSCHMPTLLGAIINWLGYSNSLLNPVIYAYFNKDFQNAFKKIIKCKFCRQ
The format is functional, cell-based.

Assay [6] addresses 5-hydroxytryptamine receptor 2B (Homo sapiens, UniProt P41595). The format is functional, cell-based.
Assay [7] concerns the target T3, Neuropeptide Y receptor type 1 (Homo sapiens, UniProt P25929).
T3 sequence (P25929 whole entry): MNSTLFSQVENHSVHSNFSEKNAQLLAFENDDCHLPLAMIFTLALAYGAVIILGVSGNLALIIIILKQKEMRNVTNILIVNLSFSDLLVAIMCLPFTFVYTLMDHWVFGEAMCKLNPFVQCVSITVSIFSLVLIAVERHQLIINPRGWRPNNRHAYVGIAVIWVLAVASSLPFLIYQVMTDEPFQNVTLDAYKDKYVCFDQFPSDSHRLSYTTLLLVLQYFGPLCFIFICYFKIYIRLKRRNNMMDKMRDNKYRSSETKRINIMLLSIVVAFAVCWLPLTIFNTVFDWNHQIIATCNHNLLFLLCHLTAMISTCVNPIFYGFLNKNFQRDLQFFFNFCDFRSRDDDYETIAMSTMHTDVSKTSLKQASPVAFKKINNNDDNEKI
Particulars: read-out: AC50.

Assay [8] addresses 3',5'-cyclic-AMP phosphodiesterase 4D (Homo sapiens, UniProt Q08499). The format is functional.
A further assay addresses T4, Thromboxane A2 receptor (Homo sapiens, UniProt P21731).
T4 sequence (P21731 whole entry): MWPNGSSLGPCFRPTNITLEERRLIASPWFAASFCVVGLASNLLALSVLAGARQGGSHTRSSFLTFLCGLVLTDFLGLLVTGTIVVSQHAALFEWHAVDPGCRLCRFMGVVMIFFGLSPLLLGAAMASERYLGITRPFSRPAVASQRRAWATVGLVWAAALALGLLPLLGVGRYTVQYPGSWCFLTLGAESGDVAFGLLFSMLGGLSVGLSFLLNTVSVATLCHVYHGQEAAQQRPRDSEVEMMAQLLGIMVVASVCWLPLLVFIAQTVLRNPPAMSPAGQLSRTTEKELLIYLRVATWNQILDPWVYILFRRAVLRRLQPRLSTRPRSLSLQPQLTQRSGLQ

Assay [9] deals with Sodium-dependent noradrenaline transporter (Homo sapiens, UniProt P23975).
Assay [10] deals with T5, Alpha-1A adrenergic receptor (Homo sapiens, UniProt P35348).
T5 sequence (P35348 whole entry): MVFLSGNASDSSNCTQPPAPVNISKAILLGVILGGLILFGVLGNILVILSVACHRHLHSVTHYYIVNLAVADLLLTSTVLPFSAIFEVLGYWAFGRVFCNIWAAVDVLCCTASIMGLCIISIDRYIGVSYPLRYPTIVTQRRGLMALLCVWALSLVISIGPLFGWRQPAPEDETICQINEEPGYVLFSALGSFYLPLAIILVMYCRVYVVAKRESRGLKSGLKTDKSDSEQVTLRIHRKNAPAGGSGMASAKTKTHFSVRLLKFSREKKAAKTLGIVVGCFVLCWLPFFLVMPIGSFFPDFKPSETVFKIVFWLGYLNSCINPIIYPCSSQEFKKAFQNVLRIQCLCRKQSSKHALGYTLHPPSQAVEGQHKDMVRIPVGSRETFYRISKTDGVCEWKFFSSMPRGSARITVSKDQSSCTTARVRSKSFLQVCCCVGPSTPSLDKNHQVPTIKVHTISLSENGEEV
The format is functional, cell-based.

What is called AC50 is the concentration giving half of the maximal activity seen.
Also: assay procedure not described here.

Histamine H3 receptor, sequence (Q9Y5N1 whole entry): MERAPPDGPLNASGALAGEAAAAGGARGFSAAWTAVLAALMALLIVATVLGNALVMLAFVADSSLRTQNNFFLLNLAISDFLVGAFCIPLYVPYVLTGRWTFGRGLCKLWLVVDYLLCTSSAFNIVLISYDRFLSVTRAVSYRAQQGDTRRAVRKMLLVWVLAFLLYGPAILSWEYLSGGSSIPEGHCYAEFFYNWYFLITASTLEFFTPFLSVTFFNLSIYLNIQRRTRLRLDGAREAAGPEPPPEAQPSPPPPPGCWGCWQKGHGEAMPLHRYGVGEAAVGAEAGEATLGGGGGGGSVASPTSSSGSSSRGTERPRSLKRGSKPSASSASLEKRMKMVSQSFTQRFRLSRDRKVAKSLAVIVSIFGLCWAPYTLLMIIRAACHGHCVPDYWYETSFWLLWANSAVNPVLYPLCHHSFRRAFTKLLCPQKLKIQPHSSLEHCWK
Melanocortin receptor 3, sequence (P41968 whole entry): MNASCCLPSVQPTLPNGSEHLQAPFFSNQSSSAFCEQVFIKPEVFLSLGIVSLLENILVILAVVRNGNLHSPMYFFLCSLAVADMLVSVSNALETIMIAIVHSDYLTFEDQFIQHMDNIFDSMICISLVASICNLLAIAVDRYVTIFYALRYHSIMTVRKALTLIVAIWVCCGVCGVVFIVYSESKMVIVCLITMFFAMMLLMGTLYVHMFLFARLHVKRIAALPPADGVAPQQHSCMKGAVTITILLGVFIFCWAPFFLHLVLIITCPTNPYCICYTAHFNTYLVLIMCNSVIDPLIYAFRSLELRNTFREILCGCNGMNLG
3',5'-cyclic-AMP phosphodiesterase 4D, sequence (Q08499 whole entry): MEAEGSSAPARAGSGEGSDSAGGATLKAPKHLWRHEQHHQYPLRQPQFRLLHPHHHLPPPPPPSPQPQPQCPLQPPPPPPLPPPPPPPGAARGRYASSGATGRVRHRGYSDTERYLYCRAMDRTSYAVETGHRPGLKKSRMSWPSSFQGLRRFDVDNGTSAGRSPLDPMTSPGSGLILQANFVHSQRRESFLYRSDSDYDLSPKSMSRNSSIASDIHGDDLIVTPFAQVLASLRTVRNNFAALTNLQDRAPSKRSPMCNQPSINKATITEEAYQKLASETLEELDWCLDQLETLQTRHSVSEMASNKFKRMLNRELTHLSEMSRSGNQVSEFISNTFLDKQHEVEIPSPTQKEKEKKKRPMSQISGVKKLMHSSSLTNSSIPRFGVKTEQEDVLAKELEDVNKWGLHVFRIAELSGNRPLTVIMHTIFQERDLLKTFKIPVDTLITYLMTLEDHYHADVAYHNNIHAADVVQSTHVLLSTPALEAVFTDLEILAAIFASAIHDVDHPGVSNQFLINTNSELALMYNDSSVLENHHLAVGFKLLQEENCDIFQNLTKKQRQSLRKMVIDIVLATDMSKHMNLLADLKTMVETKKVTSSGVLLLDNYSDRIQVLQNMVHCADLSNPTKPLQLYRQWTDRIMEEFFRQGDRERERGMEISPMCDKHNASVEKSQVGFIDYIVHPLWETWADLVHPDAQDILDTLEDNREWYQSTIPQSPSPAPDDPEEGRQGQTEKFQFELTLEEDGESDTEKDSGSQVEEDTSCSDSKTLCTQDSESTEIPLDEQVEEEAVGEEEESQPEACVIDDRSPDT
Growth hormone secretagogue receptor type 1, sequence (Q92847 whole entry): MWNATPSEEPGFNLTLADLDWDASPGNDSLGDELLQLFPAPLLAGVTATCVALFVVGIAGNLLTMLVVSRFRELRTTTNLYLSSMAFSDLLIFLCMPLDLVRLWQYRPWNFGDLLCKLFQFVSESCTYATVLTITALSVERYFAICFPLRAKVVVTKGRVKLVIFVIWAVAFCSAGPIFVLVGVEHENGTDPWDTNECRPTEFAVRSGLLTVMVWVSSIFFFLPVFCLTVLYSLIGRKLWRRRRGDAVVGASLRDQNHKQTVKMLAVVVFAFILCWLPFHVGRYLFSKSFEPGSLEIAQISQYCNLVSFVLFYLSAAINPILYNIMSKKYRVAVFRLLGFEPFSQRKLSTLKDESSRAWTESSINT
Gamma-aminobutyric acid receptor subunit alpha-1, sequence (P62813 whole entry): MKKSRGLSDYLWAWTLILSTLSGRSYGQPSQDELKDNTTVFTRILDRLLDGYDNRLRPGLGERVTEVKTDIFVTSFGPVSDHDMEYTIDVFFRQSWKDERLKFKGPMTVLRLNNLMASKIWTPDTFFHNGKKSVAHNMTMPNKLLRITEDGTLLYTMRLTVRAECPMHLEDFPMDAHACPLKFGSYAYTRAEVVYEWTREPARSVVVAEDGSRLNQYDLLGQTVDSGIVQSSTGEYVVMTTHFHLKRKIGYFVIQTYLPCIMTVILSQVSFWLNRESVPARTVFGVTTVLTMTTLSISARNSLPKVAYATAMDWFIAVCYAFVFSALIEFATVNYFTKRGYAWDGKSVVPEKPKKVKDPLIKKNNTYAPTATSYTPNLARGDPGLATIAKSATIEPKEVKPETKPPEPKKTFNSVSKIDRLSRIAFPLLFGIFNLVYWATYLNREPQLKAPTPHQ
Adenosine receptor A2a, sequence (P29274 whole entry): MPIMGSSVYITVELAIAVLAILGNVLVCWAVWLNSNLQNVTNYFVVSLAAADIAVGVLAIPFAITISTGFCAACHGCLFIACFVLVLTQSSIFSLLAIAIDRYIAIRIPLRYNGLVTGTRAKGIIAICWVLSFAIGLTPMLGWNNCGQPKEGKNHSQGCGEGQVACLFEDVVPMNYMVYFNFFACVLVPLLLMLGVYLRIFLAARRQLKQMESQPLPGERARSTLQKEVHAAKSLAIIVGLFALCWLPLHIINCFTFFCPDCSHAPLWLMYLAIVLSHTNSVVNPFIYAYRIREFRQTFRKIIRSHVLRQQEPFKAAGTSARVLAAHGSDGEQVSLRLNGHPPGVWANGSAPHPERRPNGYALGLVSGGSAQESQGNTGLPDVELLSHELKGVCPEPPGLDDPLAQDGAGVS
5-hydroxytryptamine receptor 2B, sequence (P41595 whole entry): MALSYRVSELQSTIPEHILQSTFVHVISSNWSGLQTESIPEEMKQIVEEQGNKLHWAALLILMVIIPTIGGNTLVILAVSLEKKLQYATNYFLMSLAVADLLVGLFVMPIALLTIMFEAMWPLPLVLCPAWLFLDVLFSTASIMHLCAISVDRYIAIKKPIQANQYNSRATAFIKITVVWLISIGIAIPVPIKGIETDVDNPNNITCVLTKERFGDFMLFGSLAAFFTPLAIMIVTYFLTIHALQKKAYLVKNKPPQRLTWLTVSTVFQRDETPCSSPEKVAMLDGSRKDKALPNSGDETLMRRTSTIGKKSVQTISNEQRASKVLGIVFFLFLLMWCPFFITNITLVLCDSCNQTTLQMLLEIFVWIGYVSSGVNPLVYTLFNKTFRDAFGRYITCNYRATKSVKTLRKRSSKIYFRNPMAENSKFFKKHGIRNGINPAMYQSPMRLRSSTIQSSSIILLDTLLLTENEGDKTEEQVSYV
Vasopressin V2 receptor, sequence (P30518 whole entry): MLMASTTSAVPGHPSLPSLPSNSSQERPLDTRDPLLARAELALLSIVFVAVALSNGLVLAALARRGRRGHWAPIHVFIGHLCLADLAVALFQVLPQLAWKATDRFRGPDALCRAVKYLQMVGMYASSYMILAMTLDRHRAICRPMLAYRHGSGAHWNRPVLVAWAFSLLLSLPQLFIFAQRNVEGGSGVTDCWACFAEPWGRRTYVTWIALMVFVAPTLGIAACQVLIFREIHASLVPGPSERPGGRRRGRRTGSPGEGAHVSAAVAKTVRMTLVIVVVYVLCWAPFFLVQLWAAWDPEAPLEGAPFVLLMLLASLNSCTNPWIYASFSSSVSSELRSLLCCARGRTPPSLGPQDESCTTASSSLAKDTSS
Histamine H1 receptor, sequence (P35367 whole entry): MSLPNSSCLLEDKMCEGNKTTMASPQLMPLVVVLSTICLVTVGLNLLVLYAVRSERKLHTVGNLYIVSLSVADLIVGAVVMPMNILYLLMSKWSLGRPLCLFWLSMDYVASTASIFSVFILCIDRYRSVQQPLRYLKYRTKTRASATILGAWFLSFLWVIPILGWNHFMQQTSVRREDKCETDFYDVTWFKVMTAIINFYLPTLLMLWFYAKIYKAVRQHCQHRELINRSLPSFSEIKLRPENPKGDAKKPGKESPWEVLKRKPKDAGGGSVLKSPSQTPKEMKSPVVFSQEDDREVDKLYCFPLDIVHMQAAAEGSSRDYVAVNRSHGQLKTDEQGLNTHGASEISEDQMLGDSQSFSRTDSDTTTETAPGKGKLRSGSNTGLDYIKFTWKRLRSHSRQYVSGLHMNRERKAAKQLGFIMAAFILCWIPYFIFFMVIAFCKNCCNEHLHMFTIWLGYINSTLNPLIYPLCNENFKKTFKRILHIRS
Sodium-dependent noradrenaline transporter, sequence (P23975 whole entry): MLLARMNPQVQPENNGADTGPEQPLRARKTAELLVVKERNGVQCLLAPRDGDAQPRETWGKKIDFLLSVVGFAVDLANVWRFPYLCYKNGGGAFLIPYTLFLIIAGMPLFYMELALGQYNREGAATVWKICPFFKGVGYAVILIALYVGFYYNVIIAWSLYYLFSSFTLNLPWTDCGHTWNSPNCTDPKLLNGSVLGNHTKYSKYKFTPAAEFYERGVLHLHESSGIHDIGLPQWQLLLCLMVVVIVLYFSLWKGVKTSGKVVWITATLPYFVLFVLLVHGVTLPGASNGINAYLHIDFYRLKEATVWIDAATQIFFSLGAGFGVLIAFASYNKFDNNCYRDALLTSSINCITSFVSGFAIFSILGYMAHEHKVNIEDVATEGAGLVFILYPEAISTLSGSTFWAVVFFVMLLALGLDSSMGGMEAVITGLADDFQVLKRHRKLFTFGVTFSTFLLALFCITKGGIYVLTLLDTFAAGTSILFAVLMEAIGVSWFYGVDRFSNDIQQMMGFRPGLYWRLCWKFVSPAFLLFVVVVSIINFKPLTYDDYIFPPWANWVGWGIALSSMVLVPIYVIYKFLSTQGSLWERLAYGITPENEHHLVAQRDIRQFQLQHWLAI

As to `CCN(CC)CCN1C(=O)CN=C(c2ccccc2F)c2cc(Cl)ccc21` [FLURAZEPAM], the AC50 at Adenosine receptor A2a is > 30 µM; in assay [1] it was > 10 µM; on Vasopressin V2 receptor, > 30 µM; in assay [2], > 10 µM; in assay [3], 0.0512 µM; in [4], 22.9 µM. Further, the AC50 on Histamine H1 receptor is > 10 µM; in assay [5], > 30 µM; in assay [6] it was > 10 µM; on Melanocortin receptor 3, > 30 µM; in assay [7] it was > 30 µM; in [8], > 30 µM. For the same molecule, the AC50 was > 30 µM on Thromboxane A2 receptor, > 30 µM in assay [9], > 30 µM in assay [10] and > 10 µM on Histamine H3 receptor.
Consider `CCCCCC(=O)O[C@]1(C(C)=O)CC[C@H]2[C@@H]3CCC4=CC(=O)CC[C@]4(C)[C@H]3CC[C@@]21C` [HYDROXYPROGESTERONE CAPROATE], for which the AC50 (at Adenosine receptor A2a; in assay [1]; on Vasopressin V2 receptor; in assay [2]; in assay [3]; in assay [4]) was > 30 µM each time. For the same molecule, the AC50 on Histamine H1 receptor is > 30 µM; in assay [5], > 30 µM; in assay [6], > 30 µM; on Melanocortin receptor 3 it was > 30 µM; in assay [7] it was > 30 µM; in [8], 25 µM. The AC50 (on Thromboxane A2 receptor; in assay [9]; in assay [10]; on Histamine H3 receptor) was > 30 µM in each case.
Take `O=C(O)c1ccccc1Nc1cc(Cl)ccc1C(=O)O` [LOBENZARIT]: the AC50 (at Adenosine receptor A2a; in assay [1]; at Vasopressin V2 receptor; in assay [2]; in assay [3]; in assay [4]) was > 30 µM throughout. Further, the AC50 (on Histamine H1 receptor; in assay [5]; in assay [6]; on Melanocortin receptor 3; in assay [7]; in [8]) was > 30 µM throughout. For the same molecule, the AC50 (at Thromboxane A2 receptor; in assay [9]; in [10]; on Histamine H3 receptor) was > 30 µM in each case.
For the molecule `CCOC(=O)O[C@]1(C(=O)OCCl)CC[C@H]2[C@@H]3CCC4=CC(=O)C=C[C@]4(C)[C@H]3[C@@H](O)C[C@@]21C` [LOTEPREDNOL ETABONATE], the AC50 (on Adenosine receptor A2a; in [1]; at Vasopressin V2 receptor; in [2]; in [3]; in assay [4]) was > 30 µM in each case. Further, the AC50 (on Histamine H1 receptor; in assay [5]; in assay [6]; on Melanocortin receptor 3; in assay [7]; in assay [8]) was > 30 µM each time. Further, the AC50 (at Thromboxane A2 receptor; in assay [9]; in assay [10]; on Histamine H3 receptor) was > 30 µM each time.
With `Cc1ncc2n1-c1ccc(Cl)cc1C(c1ccccc1F)=NC2` [MIDAZOLAM], the AC50 on Adenosine receptor A2a is > 30 µM; in assay [1] it was > 10 µM; at Vasopressin V2 receptor, > 30 µM; in assay [2], > 10 µM; in [3], 0.0025 µM; in [4], > 30 µM. For the same molecule, the AC50 at Histamine H1 receptor was > 10 µM; in [5] it was > 30 µM; in [6], > 10 µM; on Melanocortin receptor 3, > 30 µM; in assay [7], > 30 µM; in [8], 10 µM. In addition, the AC50 was > 30 µM on Thromboxane A2 receptor, > 30 µM in [9], > 30 µM in assay [10] and > 10 µM on Histamine H3 receptor.
`COc1ccc(-c2noc(CC(=O)O)c2-c2ccc(OC)cc2)cc1` [MOFEZOLAC]: the AC50 (on Adenosine receptor A2a; in [1]; on Vasopressin V2 receptor; in assay [2]; in [3]; in assay [4]) was > 30 µM each time. Also, the AC50 (on Histamine H1 receptor; in [5]; in [6]; at Melanocortin receptor 3; in [7]; in assay [8]) was > 30 µM each time. The AC50 (at Thromboxane A2 receptor; in assay [9]; in [10]; at Histamine H3 receptor) was > 30 µM in each case.
Turning to `COc1ccc2nc3cc(Cl)ccc3c(Nc3cc(CN4CCCC4)c(O)c(CN4CCCC4)c3)c2n1` [PYRONARIDINE], the AC50 is > 30 µM on Adenosine receptor A2a; > 30 µM in assay [1]; 18 µM on Vasopressin V2 receptor; > 30 µM in [2]; > 30 µM in assay [3]; 26 µM in [4]. Also, the AC50 was 21 µM at Histamine H1 receptor; > 30 µM in assay [5]; > 30 µM in assay [6]; > 30 µM on Melanocortin receptor 3; > 30 µM in [7]; 24 µM in assay [8]. Further, the AC50 at Thromboxane A2 receptor is > 30 µM; in [9] it was 8.1 µM; in [10] it was > 30 µM; on Histamine H3 receptor, > 30 µM.
Consider `CCC(COC(=O)c1cc(OC)c(OC)c(OC)c1)(c1ccccc1)N(C)C` (stereo not drawn) [TRIMEBUTINE], for which the AC50 was > 30 µM at Adenosine receptor A2a; 17 µM in assay [1]; > 30 µM on Vasopressin V2 receptor; 21 µM in assay [2]; > 30 µM in [3]; > 30 µM in assay [4]. The AC50 on Histamine H1 receptor is > 30 µM; in assay [5], > 30 µM; in [6], > 30 µM; at Melanocortin receptor 3, > 30 µM; in assay [7], > 30 µM; in assay [8] it was 26 µM. In addition, the AC50 (at Thromboxane A2 receptor; in [9]; in assay [10]; at Histamine H3 receptor) was > 30 µM each time.

Source of the values: ChEMBL document CHEMBL5291721, “A preclinical secondary pharmacology resource illuminates target-adverse drug reaction associations of marketed drugs” (Nat Commun, 2023).
